Results published in PMC6979384, “Characterization of the plant homeodomain (PHD) reader family for their histone tail interactions” (Epigenetics & Chromatin, 2020).

Experiments:
Test in all cases: Histone peptide microarray
Assay type in all cases: binding, human
BPTF (PB) = settings: arrays performed twice, n of 4; for Array Heatmap signal, BPTF (PB): histone peptide array, GST-tagged reader, PB = PHD + Bromodomain
Procedure, shortened: (§1)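 GST-tagged PHD finger readers were expressed, purified and applied at 0.5 μM to a microarray of 293 synthetic histone peptides carrying single or combinatorial PTMs, using an optimized protocol. Binding signals are averages with standard deviation from 4 replicates.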

ING4 = settings: arrays performed twice, n of 4; for Array Heatmap signal, ING4: histone peptide array, GST-tagged reader
Procedure, shortened: as §1

PHF2 = settings: arrays performed twice, n of 4; for Array Heatmap signal, PHF2: histone peptide array, GST-tagged reader
Procedure, shortened: as §1

PHF23 = settings: arrays performed twice, n of 4; for Array Heatmap signal, PHF23: histone peptide array, GST-tagged reader
Procedure, shortened: as §1

CHD4 (PPCC) = settings: arrays performed twice, n of 4; for Array Heatmap signal, CHD4 (PPCC): histone peptide array, GST-tagged reader, PPCC = Dual PHD + Dual Chromodomain
Procedure, shortened: as §1

TRIM66 (PB) = settings: arrays performed twice, n of 4; for Array Heatmap signal, TRIM66 (PB): histone peptide array, GST-tagged reader, PB = PHD + Bromodomain
Procedure, shortened: as §1

CHD5 (PCC) = settings: arrays performed twice, n of 4; for Array Heatmap signal, CHD5 (PCC): histone peptide array, GST-tagged reader, PCC = PHD + Dual Chromodomain
Procedure, shortened: as §1

AIRE (PP) = settings: arrays performed twice, n of 4; for Array Heatmap signal, AIRE (PP): histone peptide array, GST-tagged reader
Procedure, shortened: as §1

PHF21A = settings: arrays performed twice, n of 4; for Array Heatmap signal, PHF21A: histone peptide array, GST-tagged reader
Procedure, shortened: as §1

DPF2 (PPC2W2) = settings: arrays performed twice, n of 4; for Array Heatmap signal, DPF2 (PPC2W2): histone peptide array, GST-tagged reader, PPC2W2 = Dual PHD + C2W2-type Zn-finger
Procedure, shortened: as §1

BAZ2B = settings: arrays performed twice, n of 4; for Array Heatmap signal, BAZ2B: histone peptide array, GST-tagged reader
Procedure, shortened: as §1

RAG2 = settings: arrays performed twice, n of 4; for Array Heatmap signal, RAG2: histone peptide array, GST-tagged reader
Procedure, shortened: as §1

ING5 = settings: arrays performed twice, n of 4; for Array Heatmap signal, ING5: histone peptide array, GST-tagged reader
Procedure, shortened: as §1

DIDO1 = settings: arrays performed twice, n of 4; for Array Heatmap signal, DIDO1: histone peptide array, GST-tagged reader
Procedure, shortened: as §1

KDM5B (3) = settings: arrays performed twice, n of 4; for Array Heatmap signal, KDM5B (3): histone peptide array, GST-tagged reader
Procedure, shortened: as §1

TAF3 = settings: arrays performed twice, n of 4; for Array Heatmap signal, TAF3: histone peptide array, GST-tagged reader
Procedure, shortened: as §1

MORC3 (CW) = settings: arrays performed twice, n of 4; for Array Heatmap signal, MORC3 (CW): histone peptide array, GST-tagged reader, CW = CW-type Zn-finger
Procedure, shortened: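 Each reader, produced as a GST fusion and purified, was tested at 0.5 μM on synthetic histone peptides (293 in total) carrying single or combinatorial marks. Intensities averaged over four replicates.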

PHRF1 (RP) = settings: arrays performed twice, n of 4; for Array Heatmap signal, PHRF1 (RP): histone peptide array, GST-tagged reader
Procedure, shortened: as §1

PHF8 = settings: arrays performed twice, n of 4; for Array Heatmap signal, PHF8: histone peptide array, GST-tagged reader
Procedure, shortened: as §1

MLL5 = settings: arrays performed twice, n of 4; for Array Heatmap signal, MLL5: histone peptide array, GST-tagged reader
Procedure, shortened: as §1

KDM7A = settings: arrays performed twice, n of 4; for Array Heatmap signal, KDM7A: histone peptide array, GST-tagged reader
Procedure, shortened: as §1

ING2 = settings: arrays performed twice, n of 4; for Array Heatmap signal, ING2: histone peptide array, GST-tagged reader
Procedure, shortened: as §1

KDM5A (3) = settings: arrays performed twice, n of 4; for Array Heatmap signal, KDM5A (3): histone peptide array, GST-tagged reader
Procedure, shortened: as §1

PHF13 = settings: arrays performed twice, n of 4; for Array Heatmap signal, PHF13: histone peptide array, GST-tagged reader
Procedure, shortened: as §1

CHD5 (PPCC) = settings: arrays performed twice, n of 4; for Array Heatmap signal, CHD5 (PPCC): histone peptide array, GST-tagged reader, PPCC = Dual PHD + Dual Chromodomain
Procedure, shortened: as §1

SP140L = settings: arrays performed twice, n of 4; for Array Heatmap signal, SP140L: histone peptide array, GST-tagged reader
Procedure, shortened: as §1

KDM5A (1) = settings: arrays performed twice, n of 4; for Array Heatmap signal, KDM5A (1): histone peptide array, GST-tagged reader
Procedure, shortened: as §1

KDM4C (TTP) = settings: arrays performed twice, n of 4; for Array Heatmap signal, KDM4C (TTP): histone peptide array, GST-tagged reader, TTP = Tandem Tudor domain + PHD
Procedure, shortened: as §1

ING1 = settings: arrays performed twice, n of 4; for Array Heatmap signal, ING1: histone peptide array, GST-tagged reader
Procedure, shortened: as §1

KDM5B (1) = settings: arrays performed twice, n of 4; for Array Heatmap signal, KDM5B (1): histone peptide array, GST-tagged reader
Procedure, shortened: as §1

ING3 = settings: arrays performed twice, n of 4; for Array Heatmap signal, ING3: histone peptide array, GST-tagged reader
Procedure, shortened: as §1

## H3 (15-34)K27ac: H3 15-34
BPTF (PB)
  Array Heatmap signal, BPTF (PB): 0.3592
ING4
  Array Heatmap signal, ING4: 0.4806
PHF2
  Array Heatmap signal, PHF2: 0.4814
PHF23
  Array Heatmap signal, PHF23: 0.5579
CHD4 (PPCC)
  Array Heatmap signal, CHD4 (PPCC): 0.5674
TRIM66 (PB)
  Array Heatmap signal, TRIM66 (PB): 0.5567
CHD5 (PCC)
  Array Heatmap signal, CHD5 (PCC): 0.7622
AIRE (PP)
  Array Heatmap signal, AIRE (PP): 0.5038
PHF21A
  Array Heatmap signal, PHF21A: 0.4777
DPF2 (PPC2W2)
  Array Heatmap signal, DPF2 (PPC2W2): 0.642
BAZ2B
  Array Heatmap signal, BAZ2B: 0.4845
RAG2
  Array Heatmap signal, RAG2: 0.2665
ING5
  Array Heatmap signal, ING5: 0.3933
DIDO1
  Array Heatmap signal, DIDO1: 0.6571
KDM5B (3)
  Array Heatmap signal, KDM5B (3): 0.4788
TAF3
  Array Heatmap signal, TAF3: 0.268
MORC3 (CW)
  Array Heatmap signal, MORC3 (CW): 0.3756
PHRF1 (RP)
  Array Heatmap signal, PHRF1 (RP): 0.4538
PHF8
  Array Heatmap signal, PHF8: 0.3727
MLL5
  Array Heatmap signal, MLL5: 0.5399
KDM7A
  Array Heatmap signal, KDM7A: 0.3922
ING2
  Array Heatmap signal, ING2: 0.5993
KDM5A (3)
  Array Heatmap signal, KDM5A (3): 0.4223
PHF13
  Array Heatmap signal, PHF13: 0.6352
CHD5 (PPCC)
  Array Heatmap signal, CHD5 (PPCC): 0.5983
SP140L
  Array Heatmap signal, SP140L: 0.3795
KDM5A (1)
  Array Heatmap signal, KDM5A (1): 0.5009
KDM4C (TTP)
  Array Heatmap signal, KDM4C (TTP): 0.5365
ING1
  Array Heatmap signal, ING1: 0.5528
KDM5B (1)
  Array Heatmap signal, KDM5B (1): 0.6588
ING3
  Array Heatmap signal, ING3: 0.5008

## H3 (15-34)K27but: H3 15-34
BPTF (PB)
  Array Heatmap signal, BPTF (PB): 0.3698
ING4
  Array Heatmap signal, ING4: 0.489
PHF2
  Array Heatmap signal, PHF2: 0.467
PHF23
  Array Heatmap signal, PHF23: 0.5352
CHD4 (PPCC)
  Array Heatmap signal, CHD4 (PPCC): 0.6128
TRIM66 (PB)
  Array Heatmap signal, TRIM66 (PB): 0.6313
CHD5 (PCC)
  Array Heatmap signal, CHD5 (PCC): 0.8263
AIRE (PP)
  Array Heatmap signal, AIRE (PP): 0.5516
PHF21A
  Array Heatmap signal, PHF21A: 0.4988
DPF2 (PPC2W2)
  Array Heatmap signal, DPF2 (PPC2W2): 0.6771
BAZ2B
  Array Heatmap signal, BAZ2B: 0.4927
RAG2
  Array Heatmap signal, RAG2: 0.2497
ING5
  Array Heatmap signal, ING5: 0.383
DIDO1
  Array Heatmap signal, DIDO1: 0.6557
KDM5B (3)
  Array Heatmap signal, KDM5B (3): 0.5015
TAF3
  Array Heatmap signal, TAF3: 0.309
MORC3 (CW)
  Array Heatmap signal, MORC3 (CW): 0.372
PHRF1 (RP)
  Array Heatmap signal, PHRF1 (RP): 0.4393
PHF8
  Array Heatmap signal, PHF8: 0.4166
MLL5
  Array Heatmap signal, MLL5: 0.5529
KDM7A
  Array Heatmap signal, KDM7A: 0.4288
ING2
  Array Heatmap signal, ING2: 0.591
KDM5A (3)
  Array Heatmap signal, KDM5A (3): 0.4198
PHF13
  Array Heatmap signal, PHF13: 0.644
CHD5 (PPCC)
  Array Heatmap signal, CHD5 (PPCC): 0.5931
SP140L
  Array Heatmap signal, SP140L: 0.3805
KDM5A (1)
  Array Heatmap signal, KDM5A (1): 0.5054
KDM4C (TTP)
  Array Heatmap signal, KDM4C (TTP): 0.5459
ING1
  Array Heatmap signal, ING1: 0.5341
KDM5B (1)
  Array Heatmap signal, KDM5B (1): 0.6712
ING3
  Array Heatmap signal, ING3: 0.4849

## H3 (21-44): H3 21-44
BPTF (PB); BPTF (PB), GST-tagged
  Array Heatmap value (peptide array binding signal): 0.3717
ING4; ING4, GST-tagged
  Array Heatmap value (peptide array binding signal): 0.5057
PHF2; PHF2, GST-tagged
  Array Heatmap value (peptide array binding signal): 0.5123
PHF23; PHF23, GST-tagged
  Array Heatmap value (peptide array binding signal): 0.5869
CHD4 (PPCC); CHD4 (PPCC), GST-tagged
  Array Heatmap value (peptide array binding signal): 0.6413
TRIM66 (PB); TRIM66 (PB), GST-tagged
  Array Heatmap value (peptide array binding signal): 0.5647
CHD5 (PCC); CHD5 (PCC), GST-tagged
  Array Heatmap value (peptide array binding signal): 0.7773
AIRE (PP); AIRE (PP), GST-tagged
  Array Heatmap value (peptide array binding signal): 0.5101
PHF21A; PHF21A, GST-tagged
  Array Heatmap value (peptide array binding signal): 0.4741
DPF2 (PPC2W2); DPF2 (PPC2W2), GST-tagged
  Array Heatmap value (peptide array binding signal): 0.7579
BAZ2B; BAZ2B, GST-tagged
  Array Heatmap value (peptide array binding signal): 0.4957
RAG2; RAG2, GST-tagged
  Array Heatmap value (peptide array binding signal): 0.2504
ING5; ING5, GST-tagged
  Array Heatmap value (peptide array binding signal): 0.397
DIDO1; DIDO1, GST-tagged
  Array Heatmap value (peptide array binding signal): 0.7788
KDM5B (3); KDM5B (3), GST-tagged
  Array Heatmap value (peptide array binding signal): 0.4825
TAF3; TAF3, GST-tagged
  Array Heatmap value (peptide array binding signal): 0.2755
MORC3 (CW); MORC3 (CW), GST-tagged
  Array Heatmap value (peptide array binding signal): 0.3763
PHRF1 (RP); PHRF1 (RP), GST-tagged
  Array Heatmap value (peptide array binding signal): 0.4628
PHF8; PHF8, GST-tagged
  Array Heatmap value (peptide array binding signal): 0.4334
MLL5; MLL5, GST-tagged
  Array Heatmap value (peptide array binding signal): 0.6112
KDM7A; KDM7A, GST-tagged
  Array Heatmap value (peptide array binding signal): 0.5232
ING2; ING2, GST-tagged
  Array Heatmap value (peptide array binding signal): 0.6399
KDM5A (3); KDM5A (3), GST-tagged
  Array Heatmap value (peptide array binding signal): 0.4938
PHF13; PHF13, GST-tagged
  Array Heatmap value (peptide array binding signal): 0.6442
CHD5 (PPCC); CHD5 (PPCC), GST-tagged
  Array Heatmap value (peptide array binding signal): 0.5941
SP140L; SP140L, GST-tagged
  Array Heatmap value (peptide array binding signal): 0.3812
KDM5A (1); KDM5A (1), GST-tagged
  Array Heatmap value (peptide array binding signal): 0.5113
KDM4C (TTP); KDM4C (TTP), GST-tagged
  Array Heatmap value (peptide array binding signal): 0.5571
ING1; ING1, GST-tagged
  Array Heatmap value (peptide array binding signal): 0.59
KDM5B (1); KDM5B (1), GST-tagged
  Array Heatmap value (peptide array binding signal): 0.6648
ING3; ING3, GST-tagged
  Array Heatmap value (peptide array binding signal): 0.4903
